According to article PMC11206987, “Investigation of the Efficacy of Benzylidene-3-methyl-2-thioxothiazolidin-4-one Analogs with Antioxidant Activities on the Inhibition of Mushroom and Mammal Tyrosinases” (Molecules, 2024):

Columns and labels:
[1] = ABTS+ radical scavenging activity assay; conditions: 100 µM
Experimental: Second, the ability of BMTTZD analogs to scavenge ABTS^+ radicals was examined. ABTS^+ radicals were obtained via the oxidation of ABTS using potassium persulfate. All samples (Trolox (positive control) and 1–8) were tested at 100 µM.
The ability of the BMTTZD analogs to scavenge ABTS^+ radicals was assessed as previously described, with minor modifications. To a 50 mL tube were added 20 mL aqueous K2S2O8 solution (2.45 mM) and 20 mL aqueous ABTS solution (7 mM). The combined mixture was placed at 22 °C in a place without light for 17 h to generate the ABTS^+ radicals. For adequate absorbance control (0.70 ± 0.02 at 734 nm), methanol was added to the combined mixture. Test compounds (Trolox and analogs 1–8; 10 µL in 10% DMSO/90% EtOH [v/v] solution) were mixed with 90 µL ABTS^+ radical solution. After storage in a place without light for 2 min, the well absorbance at 734 nm was acquired for 10 min every 1 min by using a microplate reader (VersaMax®). All test compounds were tested at 100 µM. The activity of the analogs was compared to that of Trolox.

[2] = In vitro ROS scavenging activity assay (SIN-1, DCFH-DA/esterase); conditions: test sample 40 µM; SIN-1 10 µM
Experimental: Third, the ability of analogs 1–8 to scavenge in vitro ROS was determined. Esterase was mixed with 2′,7′-dichlorodihydrofluorescein diacetate (DCFH-DA) to produce 2′,7′-dichlorodihydrofluorescein (DCFH). 3-Morpholinosydnonimine (SIN-1) generates ROS that react with DCFH, resulting in the formation of DCF (2′,7′-dichlorofluorescein). Therefore, the ability of analogs 1–8 to scavenge ROS was calculated by measuring the fluorescence of DCF with 10 µM SIN-1 and 40 µM test samples (Trolox (positive control) and analogs 1–8). […] The ability of analogs to scavenge ROS was examined as previously described. To a 15 mL tube were added DCFH-DA solution (1.25 mM; 50 µL), phosphate buffer (50 mM, 4.9 mL), and esterase (600 units/mL; 50 µL). The esterase–DCFH-DA solution was left in a dark place for 30 min. A 10 µL SIN-1 solution was added to each well of a black 96-well plate and mixed with phosphate buffer (180 µL) and Trolox (10 µL) or analogs 1–8 (10 µL). SIN-1, Trolox, and analogs 1–8 were treated at 10, 40, and 40 µM, respectively. After 5 min, 50 µL of the esterase–DCFH-DA solution was added to each well. The well fluorescence of DCF was acquired at 535 nm utilizing a microplate reader (Berthold Advances GmbH & Co., Bad Wildbad, Germany) using a 485 nm excitation wavelength. Trolox was used to compare ROS scavenging activity.

Cc1c(C)c2c(c(C)c1O)CCC(C)(C(=O)O)O2 (centres unmarked) [Trolox, reference compound]
ABTS^+ radical scavenging activity [1]: 95% | effect on SIN-1-induced ROS levels [2]: significantly decreased the SIN-1-induced ROS contents
